{"source": "paper PMC7062870", "about": "(Experimental & Molecular Medicine, 2020)", "target": "T1, fascin1 (Homo sapiens, UniProt Q16658)", "T1 construct": "gene FSCN1; commercial purified fascin1 (Hypermol)", "assay": "F-actin bundling, low-speed cosedimentation", "assay_type": "biochemical", "settings": "1 µM fascin1; 10 µM F-actin"}
{"compound": "CN(C)CCCN1c2ccccc2CCc2ccccc21", "note": "[imipramine]", "values": [{"measurement": "F-actin bundling, low-speed cosedimentation", "result": "upon imipramine addition, the F-actin pellet fraction significantly diminished in favor of the supernatant"}]}
